Measurements as given in patent publication US12336994B2, “Alpha polyglutamated tetrahydrofolates and uses thereof” (L.E.A.F. HOLDINGS GROUP LLC, priority 2018, dated 2025).

Columns and labels:
AML12 liver cells = assay: Toxicity on AML12 non-cancerous liver cells; format: cell-based; settings: all doses studied (16 nM to 128 nM), 48 hours
Description: (§1) Methodologies used for cell line AML12 (non-cancerous liver cells) and CCD841 (non-cancerous colon epithelial cells) are similar to the methods used for cancer cells.

[1] = tested on: CCD841 colon epithelium cells; assay: Toxicity on CCD841 non-cancerous colon epithelial cells; format: cell-based; settings: all concentrations tested (16 nM, 32 nM, 64 nM, 128 nM), 48 hours
Description: as §1

[2] = tested on: NCI H2342 non-small cell lung cancer (NSCLC), adenocarcinoma subtype; assay: CellTiter-Glo (CTG) luminescent cell viability assay, NCI H2342; format: cell-based, Human; settings: NCI H2342, 48 hours of treatment
Description: (§2) Luciferase luminescence were recorded for each well.

HT-29 (colon cancer) = assay: CellTiter-Glo (CTG) luminescent cell viability assay, HT-29; format: cell-based, Human; settings: HT-29, 48 hours
Description: as §2

SMILES | reduction in the AML12 liver cell counts (AML12 liver cells) | decrease in the number of CCD841 colon epithelium cells [1] | potency (cytotoxic activity, dose response) compared among test articles and pemetrexed ([2]; listed as free L gamma G6) | potency (cytotoxic activity, dose response) compared among test articles and pemetrexed ([2]; listed as free pemetrexed gG6) | potency (cytotoxic activity, dose response) compared among test articles and pemetrexed (HT-29 (colon cancer); listed as free L gamma G6) | potency (cytotoxic activity, dose response) compared among test articles and pemetrexed (HT-29 (colon cancer); listed as free pemetrexed gG6)
Nc1nc2[nH]cc(CCc3ccc(C(=O)N[C@@H](CCC(=O)O)C(=O)O)cc3)c2c(=O)[nH]1 [pemetrexed] | approximately 40% | ≥ 50% | – | – | – | –
Nc1nc2[nH]cc(CCc3ccc(C(=O)N[C@@H](CCC(=O)N[C@@H](CCC(=O)N[C@@H](CCC(=O)N[C@@H](CCC(=O)N[C@@H](CCC(=O)N[C@@H](CCC(=O)O)C(=O)O)C(=O)O)C(=O)O)C(=O)O)C(=O)O)C(=O)O)cc3)c2c(=O)[nH]1 [gG6, free pemetrexed L-gamma hexaglutamate] | – | – | lowest potency | least potent | lowest potency | least potent
